Results from the supplement of paper PMC10307832.

Columns and labels:
Test in all cases: relative viability (nuclei count vs DMSO), 5 days (fraction); higher = more cells survive
[1] = compound: CCCS(=O)(=O)Nc1ccc(F)c(C(=O)c2c[nH]c3ncc(-c4ccc(Cl)cc4)cc23)c1F [Vemurafenib] + O=C(CCCCCCC(=O)Nc1ccccc1)NO [Vorinostat] (partner 1 µM)
Summary of the method: (§1)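 A single step with final 0.05% Triton X-100, 1% formaldehyde and 1 ug/ml Hoechst fixed the cells and stained nuclei 5 days after treatment. Lung cancer cell lines in 1536-well plates had been treated by pin tool the day after seeding with one drug alone or a fixed anchor-drug dose plus five library-drug doses (not always all listed) in √10 steps, and nuclei were counted on 4× images. Relative viability is the ratio of nuclei in treated wells to nuclei in vehicle wells, taken as the median of duplicate plates.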

[2] = compound: COc1cccc2cc(-c3nc([C@H]4CC[C@H](C(=O)O)CC4)n4ncnc(N)c34)[nH]c12 [OSI-027] + Cc1nc(Nc2ncc(C(=O)Nc3c(C)cccc3Cl)s2)cc(N2CCN(CCO)CC2)n1 [Dasatinib] (partner 0.075 µM)
Summary of the method: as §1

[3] = compound: COc1cccc2cc(-c3nc([C@H]4CC[C@H](C(=O)O)CC4)n4ncnc(N)c34)[nH]c12 [OSI-027] + Nc1ncn([C@H]2C[C@H](O)[C@@H](CO)O2)c(=O)n1 [Decitabine] (partner 2 µM)
Summary of the method: as §1

[4] = compound: Cc1nc(NC(=O)N2CCC[C@H]2C(N)=O)sc1-c1ccnc(C(C)(C)C(F)(F)F)c1 [Alpelisib] + NC(=O)Nc1cc(-c2cccc(F)c2)sc1C(=O)N[C@H]1CCCNC1 [AZD7762] (partner 0.2 µM)
Summary of the method: as §1

With NCI-H3122 the relative viability ([1]; first compound 0.03162 µM) was 0.962, the relative viability ([1]; first compound 0.1 µM) was 0.916 and the relative viability ([1]; first compound 0.3162 µM) was 1.01. For the same cell line, the relative viability ([1]; first compound 1 µM) was 1.04, the relative viability ([2]; first compound 0.01 µM) was 0.831 and the relative viability ([2]; first compound 0.03162 µM) was 0.844. For the same cell line, the relative viability ([2]; first compound 0.1 µM) was 0.923, the relative viability ([2]; first compound 0.3162 µM) was 0.631 and the relative viability ([2]; first compound 1 µM) was 0.391. It also gave a relative viability ([3]; first compound 0.01 µM) of 0.415, a relative viability ([3]; first compound 0.03162 µM) of 0.547 and a relative viability ([3]; first compound 0.1 µM) of 0.457. The relative viability ([3]; first compound 0.3162 µM) was 0.345, the relative viability ([3]; first compound 1 µM) was 0.154 and the relative viability ([4]; first compound 0.04 µM) was 0.989. It also gave a relative viability ([4]; first compound 0.1265 µM) of 1.03, a relative viability ([4]; first compound 0.4 µM) of 0.978 and a relative viability ([4]; first compound 1.265 µM) of 0.693. It also gave a relative viability ([4]; first compound 4 µM) of 0.589.
In the case of PC-3 [JPC-3], the relative viability ([1]; first compound 0.3162 µM) is reported as 0.66, the relative viability ([1]; first compound 1 µM) is reported as 1.06 and the relative viability ([2]; first compound 0.01 µM) is reported as 0.883. For the same cell line, the relative viability ([2]; first compound 0.03162 µM) was 0.895, the relative viability ([2]; first compound 0.1 µM) was 1.03 and the relative viability ([2]; first compound 0.3162 µM) was 0.936. It also gave a relative viability ([2]; first compound 1 µM) of 0.494, a relative viability ([3]; first compound 0.01 µM) of 0.769 and a relative viability ([3]; first compound 0.03162 µM) of 0.841. For the same cell line, the relative viability ([3]; first compound 0.1 µM) was 0.768, the relative viability ([3]; first compound 0.3162 µM) was 0.684 and the relative viability ([3]; first compound 1 µM) was 0.628. For the same cell line, the relative viability ([4]; first compound 0.04 µM) was 0.808, the relative viability ([4]; first compound 0.1265 µM) was 0.755 and the relative viability ([4]; first compound 0.4 µM) was 0.781. For the same cell line, the relative viability ([4]; first compound 1.265 µM) was 0.601 and the relative viability ([4]; first compound 4 µM) was 0.516.
PC-14 gave a relative viability ([1]; first compound 0.03162 µM) of 0.72, a relative viability ([1]; first compound 0.3162 µM) of 0.643 and a relative viability ([1]; first compound 1 µM) of 0.655. It also gave a relative viability ([2]; first compound 0.01 µM) of 0.237, a relative viability ([2]; first compound 0.03162 µM) of 0.253 and a relative viability ([2]; first compound 0.1 µM) of 0.241. For the same cell line, the relative viability ([2]; first compound 0.3162 µM) was 0.303, the relative viability ([2]; first compound 1 µM) was 0.197 and the relative viability ([3]; first compound 0.01 µM) was 0.208. It also gave a relative viability ([3]; first compound 0.03162 µM) of 0.278, a relative viability ([3]; first compound 0.1 µM) of 0.239 and a relative viability ([3]; first compound 0.3162 µM) of 0.231. For the same cell line, the relative viability ([3]; first compound 1 µM) was 0.217, the relative viability ([4]; first compound 0.04 µM) was 0.324 and the relative viability ([4]; first compound 0.1265 µM) was 0.236. It also gave a relative viability ([4]; first compound 0.4 µM) of 0.448, a relative viability ([4]; first compound 1.265 µM) of 0.307 and a relative viability ([4]; first compound 4 µM) of 0.35.
RERF-LC-KJ showed a relative viability ([1]; first compound 0.03162 µM) of 0.616, a relative viability ([1]; first compound 0.1 µM) of 0.659 and a relative viability ([1]; first compound 0.3162 µM) of 0.625. The relative viability ([1]; first compound 1 µM) was 0.709, the relative viability ([2]; first compound 0.01 µM) was 0.835 and the relative viability ([2]; first compound 0.03162 µM) was 0.776. For the same cell line, the relative viability ([2]; first compound 0.1 µM) was 0.748, the relative viability ([2]; first compound 0.3162 µM) was 0.557 and the relative viability ([2]; first compound 1 µM) was 0.349. It also gave a relative viability ([3]; first compound 0.01 µM) of 0.617, a relative viability ([3]; first compound 0.03162 µM) of 0.664 and a relative viability ([3]; first compound 0.1 µM) of 0.668. It also gave a relative viability ([3]; first compound 0.3162 µM) of 0.538, a relative viability ([3]; first compound 1 µM) of 0.426 and a relative viability ([4]; first compound 0.04 µM) of 0.871. The relative viability ([4]; first compound 0.1265 µM) was 0.99, the relative viability ([4]; first compound 0.4 µM) was 1.5 and the relative viability ([4]; first compound 1.265 µM) was 0.762. It also gave a relative viability ([4]; first compound 4 µM) of 0.724.
Work on SW 900 yielded a relative viability ([1]; first compound 0.03162 µM) of 0.41, a relative viability ([1]; first compound 0.1 µM) of 0.466 and a relative viability ([1]; first compound 0.3162 µM) of 0.636. The relative viability ([1]; first compound 1 µM) was 0.379, the relative viability ([2]; first compound 0.03162 µM) was 0.6 and the relative viability ([2]; first compound 0.1 µM) was 0.641. It also gave a relative viability ([2]; first compound 0.3162 µM) of 0.487, a relative viability ([2]; first compound 1 µM) of 0.288 and a relative viability ([3]; first compound 0.01 µM) of 0.438. For the same cell line, the relative viability ([3]; first compound 0.03162 µM) was 0.402, the relative viability ([3]; first compound 0.1 µM) was 0.42 and the relative viability ([3]; first compound 0.3162 µM) was 0.48. It also gave a relative viability ([3]; first compound 1 µM) of 0.384, a relative viability ([4]; first compound 0.04 µM) of 0.629 and a relative viability ([4]; first compound 0.4 µM) of 0.545. It also gave a relative viability ([4]; first compound 1.265 µM) of 0.546 and a relative viability ([4]; first compound 4 µM) of 0.519.
